The results in this text go back to patent publication US7214697B2, “2-Oxo-benzimidazolyl substituted ethanolamine derivatives and their use as β3 agonists” (Eli Lilly and Company, priority 2002, dated 2007).

In data set [1] the target is T1, human β3 adrenergic receptor (Homo sapiens, UniProt P13945).
T1 construct: expressed in transfected cells; host or cells: DXB-11 Chinese hamster ovary (CHO) cell line, stably transfected (phd expression vector)
Description: whole cell receptor coupled c-AMP assay (Emax relative to isoproterenol). The data set is classed as cell-based. Particulars: transfected CHO cells, c-AMP SPA; compound's maximal response divided by isoproterenol maximal response times 100; average of at least 3 runs; SEM in brackets; read-out: Emax (SEM), % intrinsic activity relative to isoproterenol. The text has this:
The Emax values represent the average of at least 3 runs except as otherwise indicated.
The genes encoding the human β1-adrenergic receptor (Frielle et al., Proc. Natl. Acad. Sci., 84:7920–7924, 1987), the human β2-adrenergic receptor (Kobika et al., Proc. Natl. Acad. Sci., 84:46–50, 1987, Emorine et al., Proc. Natl. Acad. Sci., 84:6995–6999, 1987) and the human β3 adrenergic receptor (GraTineman et al., Molecular Pharmacology, 44(2):264–70, 1993) are individually subcloned into a phd expression vector (Grinnell el al., Bio/Technology, 5:1189–1192, 1987) and transfected into the DXB-11 Chinese hamster ovary (CHO) cell line by calcium phosphate precipitation methodology. The stably transfected cells are grown to 95% confluency in 95% Dulbecco's modified Eagles Medium (DMEM), 5% fetal bovine serum and 0.01% proline. Media is removed and the cells are washed with phosphate buffered (pH 7.4) saline (without magnesium and calcium). Cells are then lifted using an enzyme free cell dissociation solution (Specialty Media, Lavallette, N.J.) and pelleted by centrifugation.
Cells from each of the above cell lines are resuspended and added (20,000/well) to a 96-well plate. Cells are incubated at 37° C. with representative compounds of the invention for 20 minutes in buffer (Hank's balanced salt solution, 10 mM HEPES, 0.1% BSA, 1 mM L-ascorbic acid, 0.2% dimethyl sulfoxide, 1 mM 3-isobutyl-1-methylxanthine, pH 7.4). After halting the incubation with quench buffer (50 mM Na Acetate, 0.25% Triton X-100, pH 5.8), the c-AMP level is quantified by scintillation proximity assay (SPA) using a modification of the commercially available c-AMP kit (Amersham, Arlington Heights, Ill.) with rabbit anti-cAMP antibody (ICN Bioniedicals, Aurora, Ohio) for the kit.
Sigmoidal dose response curves, from the whole cell receptor coupled c-AMP assay are fit to a four parameter logistic equation using non linear regression: y=(a-d)/(1+(Dose/c)^b)+d where a and d are responses at zero and maximal dose, b is the slope factor and c is the EC50 as previously described (DeLean et al., Am. J. Physiol., 235, E97–E102, 1978). EC50 is assessed as the concentration producing 50% of the maximum response to each agonist.
Isoproterenol is accepted in the art as a non-selective β3 agonist and is widely used as a comparator in evaluating the activity of compounds. See Trends in Pharm. Sci., 15:3, 1994. The % intrinsic activity (Emax) of representative compounds of the invention is assessed relative to isoproterenol by the compound's maximal response divided by the isoproterenol maximal response times 100.

Another data set deals with rat atria. Description: In Vitro Rat Atrial Tachycardia. Particulars: isolated rat atria, cumulative addition until no further increase in atrial rate or 10^-4; average of at least 3 runs. How it is done:
Male rats (250–350 g) (Harlan Sprague Dawley, Indianapolis, Ind., USA) are killed by cervical dislocation. Hearts are removed and the left and right atria are dissected and mounted with thread in tissue baths containing 10 mls of modified Krebs' solution. Initial resting tension is 1.5–2.0 g at the outset of the experiment (Naunyn-Schmied Arch. Pharmacol., 320:145, 1982). Tissues are allowed to equilibrate approximately 30 minutes with vigorous oxygenation before exposure to a compound of the invention.
To evaluate the ability of test compounds to increase heart rate, representative compounds of the present invention are added cumulatively once the atrial rate reached a steady state from the previous addition. Compound addition is continued until no further increase in atrial rate occurred or until a concentration of 10^−4 is reached. The increase in beats per minute (bpm) is measured for each concentration of test compound by means of a BioPac System (Br. J. of Pharmacol., 126:1018–1024, 1999).
The “% increase” values represent the average of at least 3 runs.

T1 sequence (P13945 whole entry): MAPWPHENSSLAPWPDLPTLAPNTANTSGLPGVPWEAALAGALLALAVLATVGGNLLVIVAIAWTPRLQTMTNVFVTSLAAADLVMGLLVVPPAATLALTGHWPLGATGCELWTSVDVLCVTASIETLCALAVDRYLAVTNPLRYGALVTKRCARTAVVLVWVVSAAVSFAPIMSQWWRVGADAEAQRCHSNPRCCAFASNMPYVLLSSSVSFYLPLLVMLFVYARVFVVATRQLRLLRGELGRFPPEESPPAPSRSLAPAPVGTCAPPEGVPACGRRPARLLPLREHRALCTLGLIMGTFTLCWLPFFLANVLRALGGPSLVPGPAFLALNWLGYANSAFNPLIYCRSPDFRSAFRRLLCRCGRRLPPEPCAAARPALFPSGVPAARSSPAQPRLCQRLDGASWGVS

On to `CC(C)(Cc1ccc(Oc2ncccc2C(N)=O)cc1)NC[C@H](O)COc1cccc2[nH]c(=O)n(CC3CCCC3)c12` [Example 20], for which the Emax in data set [1] came out at 66.8%.
Take `Cn1c(=O)[nH]c2cccc(OC[C@@H](O)CNC(C)(C)Cc3ccc(Cc4ccc(C(N)=O)cn4)cc3)c21` [Methyl, reference compound]: the “% Increase in Heart Rate” value with rat atria is on record as 20.8 ± 1.8%.
`CC(C)(Cc1ccc(Cc2ccc(C(N)=O)cn2)cc1)NC[C@H](O)COc1cccc2[nH]c(=O)n(CC3CCC3)c12` [Cyclobutylmethyl]: in the data set with rat atria, the “% Increase in Heart Rate” value is listed as 6.5 ± 2.2%.
Turning to `CC(C)(Cc1ccc(Oc2ccc(C(N)=O)cc2Cl)cc1)NC[C@H](O)COc1cccc2[nH]c(=O)n(CC3CCCC3)c12.Cl` [Example 21], the melting point was 159 to 164 °C (dec.).
As to `CC(C)(Cc1ccc(Oc2ccc(C(N)=O)cn2)cc1)NC[C@H](O)COc1cccc2[nH]c(=O)n(CC3CCC3)c12` [Example 17], the Emax in data set [1] came to 58.2%.
As for `CC(C)(C)Cn1c(=O)[nH]c2cccc(OC[C@@H](O)CNC(C)(C)Cc3ccc(Oc4ncccc4C(N)=O)cc3)c21` [Example 13], the Emax in data set [1] turned out to be 66.4%.
Turning to `CC(C)(Cc1ccc(Oc2ccc(C(N)=O)cc2Cl)cc1)NC[C@H](O)COc1cccc2[nH]c(=O)n(CC3CC3)c12` [Example 16], the Emax in data set [1] was found to be 76%.
As for `CC(C)(Cc1ccc(Cc2ccc(C(N)=O)cn2)cc1)NC[C@H](O)COc1cccc2[nH]c(=O)n(CC3CCCC3)c12` [Cyclopentylmethyl], the “% Increase in Heart Rate” value in the data set with rat atria came out at 9.9 ± 0.3%.
In the case of `CCn1c(=O)[nH]c2cccc(OC[C@@H](O)CNC(C)(C)Cc3ccc(Cc4ccc(C(N)=O)cn4)cc3)c21` [Ethyl, reference compound], the “% Increase in Heart Rate” value in the data set with rat atria is 19.9 ± 0.4%.
For `CC(C)(Cc1ccc(Oc2ccc(C(N)=O)cn2)cc1)NC[C@H](O)COc1cccc2[nH]c(=O)n(CC3CC3)c12` [Example 14], in data set [1], the Emax amounted to 67.9%.
Consider `CC(C)(Cc1ccc(Oc2ccc(C(N)=O)cn2)cc1)NC[C@H](O)COc1cccc2[nH]c(=O)n(CC3CCCC3)c12` [Example 19], for which the Emax in data set [1] is 63.7%.
Turning to `CC(C)(Cc1ccc(Oc2ncccc2C(N)=O)cc1)NC[C@H](O)COc1cccc2[nH]c(=O)n(CC3CC3)c12` [Example 15], the Emax in data set [1] is 80.1%.
`CC(C)(Cc1ccc(Oc2ncccc2C(N)=O)cc1)NC[C@H](O)COc1cccc2[nH]c(=O)n(CC3CCC3)c12` [Example 18]: the Emax in data set [1] is 59.8%.
As to `CC(C)(C)Cn1c(=O)[nH]c2cccc(OC[C@@H](O)CNC(C)(C)Cc3ccc(Oc4ccc(C(N)=O)cn4)cc3)c21` [Example 12], the Emax in data set [1] is 65.5%.
`CC(C)(Cc1ccc(Cc2ccc(C(N)=O)cn2)cc1)NC[C@H](O)COc1cccc2[nH]c(=O)n(CC3CC3)c12` [Cyclopropylmethyl]: in the data set on rat atria, the “% Increase in Heart Rate” value is 8.9 ± 1.2%.
For `CC(C)(Cc1ccc(Cc2ccc(C(N)=O)cn2)cc1)NC[C@H](O)COc1cccc2[nH]c(=O)[nH]c12` [Hydrogen, reference compound], in the data set with rat atria, the “% Increase in Heart Rate” value is 17.7 ± 3.7%.

In general, Emax refers to the maximal effect, on the per cent scale that the assay sets. Broadly, the melting point is the temperature, or range, at which the solid turns liquid.
